Experimental data from the NIST ThermoML archive (doi:10.1016/j.fluid.2009.04.021).

Conditions: 101.33 kPa, Liquid, Buoyancy - hydrostatic balance

CCCCn1cc[n+](C)c1.F[B-](F)(F)F [1-butyl-3-methylimidazolium tetrafluoroborate]
Conditions | mass density [kg/m3]
281.45 K | 1213.36
283.01 K | 1212.07
288.41 K | 1207.87
288.49 K | 1207.91
293.2 K | 1204.14
293.49 K | 1204.59
298.19 K | 1200.74
298.29 K | 1200.69
303.04 K | 1197.96
303.25 K | 1196.93
308.02 K | 1192.73
308.14 K | 1193.22
312.86 K | 1190.14
313.44 K | 1190.35
318.17 K | 1187.07
318.18 K | 1185.49
323.04 K | 1183.15
323.06 K | 1184.13
327.58 K | 1180.59
328.06 K | 1179.55
332.87 K | 1175.86
333.24 K | 1177.1
337.9 K | 1173.42
337.97 K | 1172.99
342.78 K | 1169.84
343.45 K | 1170.2
347.5 K | 1166.66
348.11 K | 1166.78
350.81 K | 1165.3
352.74 K | 1163.68

CCn1cc[n+](C)c1.F[B-](F)(F)F [1-ethyl-3-methylimidazolium tetrafluoroborate]
Conditions | mass density [kg/m3]
293.41 K | 1287.17
298.14 K | 1283.2
303.08 K | 1279.88
307.94 K | 1275.06
313 K | 1271.88
318.7 K | 1267.21
322.5 K | 1265.05
328.4 K | 1260.59
332.78 K | 1257.46
338.22 K | 1254.07
343.05 K | 1251.15
347.97 K | 1247.07
353.07 K | 1243.6

CCCCCCn1cc[n+](C)c1.F[B-](F)(F)F [1-hexyl-3-methylimidazolium tetrafluoroborate]
Conditions | mass density [kg/m3]
283.61 K | 1166.71
288.57 K | 1163.12
293.48 K | 1159.99
298.22 K | 1156.57
303.11 K | 1152.91
308.16 K | 1149.26
313.25 K | 1146.23
318.33 K | 1142.64
323 K | 1139.57
328.63 K | 1135.72
333.69 K | 1132.53
338.15 K | 1129.41
343.04 K | 1126.12
348.26 K | 1122.71
352.72 K | 1119.68
